In ChEMBL document CHEMBL5291721, “A preclinical secondary pharmacology resource illuminates target-adverse drug reaction associations of marketed drugs” (Nat Commun, 2023) one finds AC50 data, which are given here for 35 compounds.

The target in test [1] is Voltage-gated inwardly rectifying potassium channel KCNH2 (Homo sapiens, UniProt Q12809). It counts as functional. The following applies: read-out: AC50.
For test [2], the target named is T1, Type-1 angiotensin II receptor (Homo sapiens, UniProt P30556).
T1 sequence (P30556 whole entry): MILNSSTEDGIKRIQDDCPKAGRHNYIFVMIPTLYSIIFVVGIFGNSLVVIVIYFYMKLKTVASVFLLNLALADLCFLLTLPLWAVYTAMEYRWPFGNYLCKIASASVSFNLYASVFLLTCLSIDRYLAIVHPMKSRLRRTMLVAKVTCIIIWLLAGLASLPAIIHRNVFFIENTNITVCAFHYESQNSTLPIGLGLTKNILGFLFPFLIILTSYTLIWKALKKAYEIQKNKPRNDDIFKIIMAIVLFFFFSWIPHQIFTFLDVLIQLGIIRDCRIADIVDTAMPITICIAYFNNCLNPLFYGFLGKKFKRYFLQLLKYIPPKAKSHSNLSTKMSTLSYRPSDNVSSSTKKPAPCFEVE

The target of test [3] is T2, B2 bradykinin receptor (Homo sapiens, UniProt P30411).
T2 sequence (P30411 whole entry): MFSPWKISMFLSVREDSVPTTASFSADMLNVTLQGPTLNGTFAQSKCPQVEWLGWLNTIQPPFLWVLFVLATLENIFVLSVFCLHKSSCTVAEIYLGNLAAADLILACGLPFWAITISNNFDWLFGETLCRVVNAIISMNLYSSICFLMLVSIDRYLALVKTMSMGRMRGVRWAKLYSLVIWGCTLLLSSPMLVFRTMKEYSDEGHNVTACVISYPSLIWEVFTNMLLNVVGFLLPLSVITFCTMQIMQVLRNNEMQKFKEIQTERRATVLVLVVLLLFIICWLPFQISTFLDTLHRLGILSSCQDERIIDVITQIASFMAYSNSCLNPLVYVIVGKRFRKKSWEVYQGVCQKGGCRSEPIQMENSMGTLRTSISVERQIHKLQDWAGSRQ

In test [4] the target is Neuronal acetylcholine receptor subunit alpha-4 (Homo sapiens, UniProt P43681).
Test [5] deals with Gamma-aminobutyric acid receptor subunit alpha-1 (Rattus norvegicus, UniProt P62813). It counts as functional.
The target of test [6] is Kappa-type opioid receptor (Homo sapiens, UniProt P41145).
The target in test [7] is T3, Muscarinic acetylcholine receptor M2 (Homo sapiens, UniProt P08172).
T3 sequence (P08172 whole entry): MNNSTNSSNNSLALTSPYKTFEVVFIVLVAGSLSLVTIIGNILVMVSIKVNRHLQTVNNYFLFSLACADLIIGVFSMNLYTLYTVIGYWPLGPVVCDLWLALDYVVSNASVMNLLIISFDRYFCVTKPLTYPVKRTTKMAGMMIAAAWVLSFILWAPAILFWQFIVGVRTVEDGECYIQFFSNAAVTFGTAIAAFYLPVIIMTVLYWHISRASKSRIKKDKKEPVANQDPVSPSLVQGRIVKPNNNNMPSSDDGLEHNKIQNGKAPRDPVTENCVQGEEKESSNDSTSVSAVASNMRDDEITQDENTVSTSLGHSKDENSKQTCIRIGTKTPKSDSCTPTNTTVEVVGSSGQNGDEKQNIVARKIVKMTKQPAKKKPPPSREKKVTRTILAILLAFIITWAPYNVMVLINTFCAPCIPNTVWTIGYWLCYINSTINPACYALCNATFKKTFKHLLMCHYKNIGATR
Type of test: functional, cell-based.

Test [8] concerns the target Beta-1 adrenergic receptor (Homo sapiens, UniProt P08588). It counts as functional.
Test [9] addresses T4, 5-hydroxytryptamine receptor 2C (Homo sapiens, UniProt P28335).
T4 sequence (P28335 whole entry): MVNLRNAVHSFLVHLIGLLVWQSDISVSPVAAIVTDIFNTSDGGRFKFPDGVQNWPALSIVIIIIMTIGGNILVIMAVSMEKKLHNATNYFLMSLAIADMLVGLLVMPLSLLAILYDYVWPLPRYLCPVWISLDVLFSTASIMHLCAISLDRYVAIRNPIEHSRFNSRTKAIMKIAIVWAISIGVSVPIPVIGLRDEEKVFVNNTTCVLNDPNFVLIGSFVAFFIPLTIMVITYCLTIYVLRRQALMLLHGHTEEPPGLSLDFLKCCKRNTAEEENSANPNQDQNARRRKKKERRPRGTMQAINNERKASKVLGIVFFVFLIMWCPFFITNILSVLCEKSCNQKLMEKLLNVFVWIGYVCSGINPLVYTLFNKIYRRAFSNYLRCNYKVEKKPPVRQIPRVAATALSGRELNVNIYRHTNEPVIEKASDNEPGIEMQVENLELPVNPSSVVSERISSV

Test [10] concerns the target T5, Equilibrative nucleoside transporter 1 (Homo sapiens, UniProt Q99808).
T5 sequence (Q99808 whole entry): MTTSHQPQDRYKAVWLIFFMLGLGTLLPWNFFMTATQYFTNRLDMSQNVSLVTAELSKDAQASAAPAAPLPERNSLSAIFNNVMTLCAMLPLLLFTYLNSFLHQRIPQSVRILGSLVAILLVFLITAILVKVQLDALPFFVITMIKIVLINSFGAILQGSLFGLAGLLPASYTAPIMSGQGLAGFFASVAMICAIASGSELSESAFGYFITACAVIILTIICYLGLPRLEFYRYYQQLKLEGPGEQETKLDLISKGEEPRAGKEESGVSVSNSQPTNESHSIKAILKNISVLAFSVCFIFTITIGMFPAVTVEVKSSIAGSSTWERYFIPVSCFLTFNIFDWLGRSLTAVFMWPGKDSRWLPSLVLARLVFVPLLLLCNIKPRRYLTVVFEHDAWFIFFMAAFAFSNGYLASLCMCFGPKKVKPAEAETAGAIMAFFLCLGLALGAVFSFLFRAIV

A value given as a limit tells only on which side of the number the result lay.
Further: assay procedure not described here.

Chain of Neuronal acetylcholine receptor subunit alpha-4 (P43681 whole entry): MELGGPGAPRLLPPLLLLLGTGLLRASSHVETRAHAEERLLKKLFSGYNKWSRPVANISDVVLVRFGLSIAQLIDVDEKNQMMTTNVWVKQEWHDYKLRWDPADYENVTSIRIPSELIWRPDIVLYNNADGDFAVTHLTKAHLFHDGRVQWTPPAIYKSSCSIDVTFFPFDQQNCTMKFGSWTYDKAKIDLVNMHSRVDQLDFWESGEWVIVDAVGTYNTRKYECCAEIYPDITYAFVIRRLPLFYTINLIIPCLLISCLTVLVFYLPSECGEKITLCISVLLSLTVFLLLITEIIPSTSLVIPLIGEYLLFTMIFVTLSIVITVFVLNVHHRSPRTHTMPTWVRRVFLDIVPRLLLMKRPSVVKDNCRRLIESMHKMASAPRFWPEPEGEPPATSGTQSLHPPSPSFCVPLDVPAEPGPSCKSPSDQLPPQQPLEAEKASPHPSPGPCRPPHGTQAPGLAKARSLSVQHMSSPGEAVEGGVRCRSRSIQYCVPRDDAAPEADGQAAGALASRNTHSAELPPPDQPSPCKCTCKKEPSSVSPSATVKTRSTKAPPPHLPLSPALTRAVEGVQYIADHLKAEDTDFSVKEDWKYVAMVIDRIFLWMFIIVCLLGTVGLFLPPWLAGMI
Chain of Voltage-gated inwardly rectifying potassium channel KCNH2 (Q12809 whole entry): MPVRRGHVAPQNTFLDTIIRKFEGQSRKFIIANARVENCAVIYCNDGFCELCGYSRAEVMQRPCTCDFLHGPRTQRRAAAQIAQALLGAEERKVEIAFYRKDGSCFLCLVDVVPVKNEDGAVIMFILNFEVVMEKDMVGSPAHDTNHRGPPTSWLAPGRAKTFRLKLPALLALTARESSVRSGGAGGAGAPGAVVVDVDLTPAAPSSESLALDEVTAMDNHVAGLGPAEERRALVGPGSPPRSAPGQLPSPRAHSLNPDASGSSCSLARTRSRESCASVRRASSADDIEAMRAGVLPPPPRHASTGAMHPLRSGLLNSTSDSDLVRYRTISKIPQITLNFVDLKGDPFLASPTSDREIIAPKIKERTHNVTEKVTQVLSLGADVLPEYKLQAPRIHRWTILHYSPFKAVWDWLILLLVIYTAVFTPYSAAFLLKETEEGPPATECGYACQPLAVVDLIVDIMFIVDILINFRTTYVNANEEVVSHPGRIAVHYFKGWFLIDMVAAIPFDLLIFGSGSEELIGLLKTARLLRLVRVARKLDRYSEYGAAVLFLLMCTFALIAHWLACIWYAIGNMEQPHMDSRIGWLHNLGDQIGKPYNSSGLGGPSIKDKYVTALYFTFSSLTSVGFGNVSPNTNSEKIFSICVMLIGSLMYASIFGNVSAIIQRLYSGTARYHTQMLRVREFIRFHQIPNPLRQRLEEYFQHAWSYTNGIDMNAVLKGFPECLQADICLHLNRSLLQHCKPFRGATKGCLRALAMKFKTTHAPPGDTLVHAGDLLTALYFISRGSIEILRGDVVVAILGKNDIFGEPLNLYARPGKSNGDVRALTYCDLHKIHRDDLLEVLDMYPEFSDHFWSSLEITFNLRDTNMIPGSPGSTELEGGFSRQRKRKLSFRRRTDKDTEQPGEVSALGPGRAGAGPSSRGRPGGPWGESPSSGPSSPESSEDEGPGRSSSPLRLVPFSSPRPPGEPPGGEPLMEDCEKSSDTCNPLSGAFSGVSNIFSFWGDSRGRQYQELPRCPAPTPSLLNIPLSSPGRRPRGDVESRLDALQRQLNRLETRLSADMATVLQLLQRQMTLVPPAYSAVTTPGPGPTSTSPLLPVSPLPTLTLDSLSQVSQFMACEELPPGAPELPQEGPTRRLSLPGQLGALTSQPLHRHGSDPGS
Chain of Kappa-type opioid receptor (P41145 whole entry): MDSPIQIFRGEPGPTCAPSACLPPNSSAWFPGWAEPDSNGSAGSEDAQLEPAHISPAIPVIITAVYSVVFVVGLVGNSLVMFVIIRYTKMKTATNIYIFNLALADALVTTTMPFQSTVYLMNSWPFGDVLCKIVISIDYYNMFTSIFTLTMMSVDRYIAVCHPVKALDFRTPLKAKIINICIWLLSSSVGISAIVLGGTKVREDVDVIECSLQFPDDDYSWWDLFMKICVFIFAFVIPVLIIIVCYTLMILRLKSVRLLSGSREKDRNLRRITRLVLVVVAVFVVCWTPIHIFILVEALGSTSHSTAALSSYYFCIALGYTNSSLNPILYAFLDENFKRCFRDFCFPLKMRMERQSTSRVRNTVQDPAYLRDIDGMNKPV
Chain of Beta-1 adrenergic receptor (P08588 whole entry): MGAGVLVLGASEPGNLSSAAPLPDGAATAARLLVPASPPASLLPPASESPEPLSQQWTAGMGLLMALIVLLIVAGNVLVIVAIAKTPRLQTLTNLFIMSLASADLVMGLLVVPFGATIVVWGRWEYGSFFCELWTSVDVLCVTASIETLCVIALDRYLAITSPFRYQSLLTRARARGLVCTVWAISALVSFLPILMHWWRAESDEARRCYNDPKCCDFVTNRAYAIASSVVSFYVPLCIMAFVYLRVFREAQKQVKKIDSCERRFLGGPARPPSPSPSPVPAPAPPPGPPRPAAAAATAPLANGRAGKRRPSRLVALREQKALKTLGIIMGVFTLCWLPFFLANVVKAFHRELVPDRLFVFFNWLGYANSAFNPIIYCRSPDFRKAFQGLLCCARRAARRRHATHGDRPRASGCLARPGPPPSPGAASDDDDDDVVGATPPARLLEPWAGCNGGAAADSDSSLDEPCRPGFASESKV
Chain of Gamma-aminobutyric acid receptor subunit alpha-1 (P62813 whole entry): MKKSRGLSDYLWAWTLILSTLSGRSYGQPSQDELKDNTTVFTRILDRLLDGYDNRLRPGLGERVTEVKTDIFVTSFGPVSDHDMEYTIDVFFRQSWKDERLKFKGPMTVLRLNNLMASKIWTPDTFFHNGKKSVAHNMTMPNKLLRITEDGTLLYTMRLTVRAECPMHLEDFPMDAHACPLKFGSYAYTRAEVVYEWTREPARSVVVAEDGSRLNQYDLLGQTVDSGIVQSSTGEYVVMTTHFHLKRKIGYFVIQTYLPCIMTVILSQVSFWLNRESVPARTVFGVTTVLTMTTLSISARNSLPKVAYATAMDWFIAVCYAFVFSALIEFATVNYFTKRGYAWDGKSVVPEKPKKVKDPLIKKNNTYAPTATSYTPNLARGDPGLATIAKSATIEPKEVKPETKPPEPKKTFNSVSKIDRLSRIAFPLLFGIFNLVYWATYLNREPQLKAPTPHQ

By AC50 is commonly meant the concentration at which the activity in the assay is half-maximal. In the case of `OC[C@H]1NC[C@H](O)[C@@H](O)[C@H]1O`, the concentration at half-maximal activity (AC50) in test [1] is more than 30 µM.
Still for that read-out and setting: the result for `O=C(O)[C@@H](S)[C@@H](S)C(=O)O` reads more than 30 µM; that for `CC#CC(=O)N1CCC[C@H]1c1nc(-c2ccc(C(=O)Nc3ccccn3)cc2)c2c(N)nccn12` [ACALABRUTINIB], more than 30 µM.
On to `C=CCOc1ccc(CC(=O)O)cc1Cl` [ALCLOFENAC], for which the AC50 in test [1] was more than 30 µM.
Consider `NCCCNCCSP(=O)(O)O` [AMIFOSTINE], for which the AC50 in test [2], in [1], in [3], in test [4], in [5] and in [6] was more than 30 µM in each case. For the same compound, the half-maximal activity concentration (AC50) in [7], in [8] and in test [9] was more than 30 µM throughout.
In the case of `CN(C)CCC=C1c2ccccc2CCc2ccccc21` [AMITRIPTYLINE], the half-maximal activity concentration (AC50) in test [2] is 1.4 µM; in test [3], more than 30 µM; in [4], more than 30 µM; in [5] it was more than 10 µM; in test [10] it was more than 30 µM; in [8] it was 22.7 µM. In test [9], the activity was half-maximal at 0.15 µM (AC50).
On to `CC(C)NCC(O)COc1ccc(CC(N)=O)cc1` (stereo not given) [ATENOLOL], for which the concentration at half-maximal activity (AC50) in test [2], in test [3], in [4], in test [6], in [10] and in [9] was more than 30 µM throughout.
Regarding `C[C@H](CS)C(=O)N1CCC[C@H]1C(=O)O` [CAPTOPRIL], the concentration at half-maximal activity (AC50) in [2] is more than 30 µM; in test [3], more than 30 µM; in test [4], more than 10 µM; in test [5], more than 10 µM; in [6] it was more than 10 µM; in test [10], more than 30 µM. In addition, the AC50 in test [7] was more than 10 µM; in [8], more than 10 µM; in test [9], more than 30 µM.
Take `NC(=O)C1(N2CCCCC2)CCN(CCCN2c3ccccc3CCc3ccccc32)CC1` [CARPIPRAMINE]: in [1], the AC50 is 2.2 µM.
On the same count and under the same terms, the result for `CN1CCN(C(c2ccccc2)c2ccc(Cl)cc2)CC1` (stereo not given) [CHLORCYCLIZINE] reads 4.64 µM.
Turning to `CN(C)CCCC1(c2ccc(F)cc2)OCc2cc(C#N)ccc21` (stereo not given) [CITALOPRAM], the AC50 in test [2] is more than 30 µM; in test [3], more than 30 µM; in test [5], more than 10 µM; in test [6] it was more than 10 µM; in test [10], more than 30 µM; in [8] it was more than 10 µM.
`CCCCCCCCCCCCCCCC(=O)OC[C@H](COP(=O)([O-])OCC[N+](C)(C)C)OC(=O)CCCCCCCCCCCCCCC` [COLFOSCERIL PALMITATE]: the AC50 in test [1] was more than 30 µM.
On the same count and under the same terms, the result for `O=P1(N(CCCl)CCCl)NCCCO1` (stereo not given) [CYCLOPHOSPHAMIDE ANHYDROUS] reads more than 30 µM; that for `CC(C)Nc1cccnc1N1CCN(C(=O)c2cc3cc(NS(C)(=O)=O)ccc3[nH]2)CC1` [DELAVIRDINE], 16 µM.
Same read-out and setting: next, `C[C@@H](CN1CC(=O)NC(=O)C1)N1CC(=O)NC(=O)C1` [DEXRAZOXANE]: more than 30 µM; `O=c1[nH]c2ccccc2n1CCN1CCN(c2cccc(C(F)(F)F)c2)CC1` [FLIBANSERIN]: 13 µM.
Consider `O=c1[nH]cc(F)c(=O)[nH]1` [FLUOROURACIL], for which the AC50 in [2], in test [1], in [3], in [4], in test [10] and in test [8] was more than 30 µM in each case.
For the compound `O=C(O)[C@H](O)[C@@H](O)[C@H](O)[C@H](O)CO` [GLUCONIC ACID], the AC50 in test [1] is more than 30 µM.
Still for that read-out and setting: next, `N=C(N)NCC1COc2ccccc2O1` (stereo not given) [GUANOXAN]: more than 30 µM.
Consider `CCN(CCO)CCCC(C)Nc1ccnc2cc(Cl)ccc12` (stereo not given) [HYDROXYCHLOROQUINE], for which the AC50 in test [2] was more than 10 µM; in test [1], 7.4 µM; in [3], more than 10 µM; in test [4], more than 10 µM; in [5], more than 10 µM; in [6], more than 10 µM. Further, the figures for the concentration at half-maximal activity (AC50) in test [10], in [7] and in [9] were more than 10 µM, more than 10 µM and more than 30 µM, respectively.
For the compound `N#Cc1ccnc(N2C(=O)CC[C@H]2C(=O)N(c2cncc(F)c2)[C@H](C(=O)NC2CC(F)(F)C2)c2ccccc2Cl)c1` [IVOSIDENIB], in test [1], the AC50 is more than 30 µM.
On the same count and under the same terms, next, `CNC1(c2ccccc2Cl)CCCCC1=O` (stereo not given) [KETAMINE]: more than 30 µM.
As to `O=C1[C@@H]2[C@H]3CC[C@H](C3)[C@@H]2C(=O)N1C[C@@H]1CCCC[C@H]1CN1CCN(c2nsc3ccccc23)CC1` [LURASIDONE], the half-maximal activity concentration (AC50) is more than 30 µM in [2]; more than 10 µM in [4]; more than 30 µM in test [5]; more than 30 µM in [10]; 25 µM in test [9].
In the case of `CCCCCCO[C@@H](C)c1cccc(-c2csc(NC(=O)c3cc(Cl)c(/C=C(\C)C(=O)O)c(Cl)c3)n2)c1OC` [LUSUTROMBOPAG], the AC50 in test [1] was found to be 4.9 µM.
As to `Cc1cc(C)cc(OCC2CNC(=O)O2)c1` (stereo not given) [METAXALONE], the AC50 in test [1] was more than 30 µM.
On the same count and under the same terms, the result for `CO[C@@]1(NC(=O)C(C(=O)O)c2ccc(O)cc2)C(=O)N2C(C(=O)O)=C(CSc3nnnn3C)CO[C@@H]21` (stereo not given in full) [MOXALACTAM] reads more than 30 µM.
With `CCCCCCCC/C=C\CCCCCCCC(=O)O` [OLEIC ACID], the AC50 in [1] is more than 30 µM.
Same read-out and setting: the result for `CC1=C(C/C=C(\C)CCC[C@H](C)CCC[C@H](C)CCCC(C)C)C(=O)c2ccccc2C1=O` [PHYTONADIONE] reads more than 30 µM; that for `NC(=O)C1(N2CCCCC2)CCN(CCCC(=O)c2ccc(F)cc2)CC1` [PIPAMPERONE], 1.9 µM.
On the same count and under the same terms, next, `COc1cccc2c1C(=O)c1c(O)c3c(c(O)c1C2=O)C[C@@](O)(C(=O)CO)C[C@@H]3O[C@H]1C[C@H](N)[C@H](O[C@@H]2CCCCO2)[C@H](C)O1` [PIRARUBICIN]: more than 30 µM.
Same read-out and setting: next, `CC(C)(Oc1ccc(Cl)cc1)C(=O)NC(=O)NCN1CCOCC1` [PLAFIBRIDE]: more than 30 µM; `CC(C)NC[C@H](O)COc1ccc(O)cc1` [PRENALTEROL]: more than 30 µM; `CN1CCC(N(Cc2cccs2)c2ccccc2)CC1` [THENALIDINE]: 2.9 µM.
As to `Cc1ccc(C(C)C)c(O)c1` [THYMOL], the figures for the half-maximal activity concentration (AC50) in [1] and in [9] were more than 30 µM and 170 µM, respectively.
In the case of `Cc1cccc(C)c1NC(=O)c1cc(S(N)(=O)=O)c(Cl)cc1O` [XIPAMIDE], the concentration at half-maximal activity (AC50) in [1] was more than 30 µM.
